The results in this text go back to patent US20130303500A1, “COMPOUNDS AND METHODS FOR TREATING NEOPLASIA” (Medexis S.A., priority 2010, published 2013).

SMILES strings stand for the structures.

Assay [1] has as its system 7 different cell lines (lung, ovarian, prostate, CNS, breast, colon). In words: SRB assays across 7 cell lines. The settings on record: for GI50: average over cell lines; for viability and/or cell proliferation of cell lines: cell lines representative of lung, breast, CNS, prostate, ovarian, colon and renal neoplasias. It is filed as cell-based, human. How it is done: (§1) Sulforhodamine B (SRB) assays were performed according to standard National Cancer Institute Guidelines. Briefly, human tumor cells from different cancer panels were seeded into 96 well plates in […] (plating densities ranging from 5-40,000 cells/well depending on the doubling time of individual cell lines) in serum-containing media for twenty-four hours prior to the addition of the compounds to be assayed. After 24 hours, one plate of each cell line was fixed in situ with trichloroacetic acid (TCA). The fixed slides were used to determine the cell population for each cell line at the time of drug addition (Tz). Each compound to be tested was solubilized in dimethyl sulfoxide (DMSO) and the desired concentration was then added to the medium and diluted serially 1:10 to provide a total of five or ten drug concentrations plus control (in a final volume of 200 μL). The starting dose before any dilution was 100 uM for all compounds.
(§2) Following drug addition, each culture was incubated for forty-eight hours. The assay was terminated with the addition of cold TCA. The supernatant was discarded, and the plates were washed with tap water and air dried. SRB solution was then added to each well. After staining, the bound stain was solubilized and the absorbance was read on an automated plate reader at a wavelength of 515 nm.
(§3) Using the absorbance measurements [time zero, (Tz), control growth, (C), and test growth in the presence of drug at the ten concentration levels (Ti)], the percentage growth was calculated at each of the drug concentrations levels. Percentage growth inhibition was calculated as:
(§4) [(Ti−Tz)/(C−Tz)]×100 for concentrations for which Ti>/=Tz
(§5) [(Ti−Tz)/Tz]×100 for concentrations for which Ti<Tz.
(§6) Three dose response parameters were calculated for each experimental agent. Growth inhibition of 50% (GI50) was calculated from [(Ti−Tz)/(C−Tz)]×100=50, which was the drug concentration resulting in a 50% reduction in the net protein increase (as measured by SRB staining) in control cells during the drug. The drug concentration resulting in total growth inhibition (TGI) was calculated from Ti=Tz. The LC50 (concentration of drug resulting in a 50% reduction in the measured protein at the end of the drug treatment as compared to that at the beginning) indicating a net loss of cells following treatment was calculated from [(Ti−Tz)/Tz]×100=−50.
(§7) Values were calculated for each of these three parameters when the level of activity was reached; however, if the effect was not reached or was exceeded, the value for that parameter was expressed as greater or less than the maximum or minimum concentration tested.
SRB provides a colorimetric measure of a compound's anti-cancer activity. SRB assays were performed with compounds of the invention in 7 different cell lines, which represent six different tumor panels (lung, ovarian, prostate, CNS, breast, colon).
Background: Sulforhodamine B stains cellular protein and so reports cell mass.

A further assay relates to H460 (Lung) cells. In words: Sulforhodamine B (SRB) assay, H460. It is filed as cell-based, human. The following applies: for TGI / GI50: H460 Lung, SRB, 48 h; for CC50 / GI50: Homo sapiens; for CC50: NCI-H460, 48 h, read-out: LC50; for GI50: NCI-H460. How it is done: as §1, §2, §3, §4, §5, §6, §7
The test system of a further assay is MCF7 (Breast) cells. The experiment in a line: Sulforhodamine B (SRB) assay, MCF7. The settings on record: for CC50 / GI50: Homo sapiens; for CC50: MCF7, 48 h, read-out: LC50; for GI50 / TGI: MCF7 Breast, SRB, 48 h. Format: cell-based, human. How it is done:
as §1, §2, §3, §4, §5, §6, §7

Assay [2] concerns NCI-ADR-RES (Ovarian) cells. The experiment in a line: Sulforhodamine B (SRB) assay, NCI-ADR-RES (multidrug resistant). Format: cell-based, human. The following applies: 48 h. How it is done: as §1, §2, §3, §4, §5, §6, §7
In another assay the test system is PC3 (Prostate) cells. In words: Sulforhodamine B (SRB) assay, PC3. Format: cell-based. The settings on record: Homo sapiens, Prostate cell, 48 h; for CC50: read-out: LC50; for GI50 / IC (TGI): PC3 Prostate, SRB. How it is done:
as §1, §2, §3, §4, §5, §6, §7

Another assay relates to SF268 (CNS) cells. The experiment in a line: Sulforhodamine B (SRB) assay, SF268. It is filed as cell-based. The settings on record: Homo sapiens; for CC50: SF-268, 48 h, read-out: LC50; for GI50 / IC (TGI): SF-268, SF268 CNS, SRB, 48 h. How it is done: as §1, §2, §3, §4, §5, §6, §7
Another assay deals with HCT116 (Colon) cells. In words: Sulforhodamine B (SRB) assay, HCT116. It is filed as cell-based, human. How it is done:
as §1, §2, §3, §4, §5, §6, §7

Another assay relates to DU145 (Prostate) cells. In words: MTT cell proliferation/viability assay, DU145. Format: cell-based. The following applies: Homo sapiens, DU-145, 72 h. How it is done:
(§8) Cell proliferation/viability was assessed by the MTT [3-(4,5-dimethylthiazol-2-yl)-2,5-diphenyltetrazolium bromide] assay, which is commercially available (Sigma, St. Louis, Mo.). Cells were cultured in 96-well plates for twenty-four hours (7-10.000 cells/well) and incubated with various concentrations of the different compounds—as indicated in the Figures—in serum-containing medium (or left untreated) for seventy-two hours. At the end of incubation, the medium was aspirated and MTT dissolved in RPMI 1640 w/o phenol red was added to each well to a final concentration of 0.25 mg/ml. After four hours incubation in the dark (37° C., 5% CO2) the supernatant was discarded. The converted dye (blue formazan crystals) was solubilized by adding 200 μl dimethylsulfoxide to each well. Absorbance was measured at 550 nm with reference at 655 nm using a spectrophotometer with the respective filters. All assays were performed in triplicate.
(§9) The effect of the different compounds on the proliferation and viability of two cancer cell lines (DU145/prostate and CAKI/renal) was tested through quantitative (4,5-dimethylthiazol-2-yl)-2,5-diphenyltetrazolium bromide (MTT) assays.

Assay [3] deals with Na+/K+-ATPase (Adenosine 5′-Triphosphatase isolated from porcine cerebral cortex). In words: Na+/K+-ATPase inhibitory activity, colorimetric Adenosine 5′-Triphosphatase Enzymatic Assay (Sigma). Format: biochemical. The settings on record: enzyme from porcine cerebral cortex, 0.5 units/ml. How it is done:
The compound inhibitory effect on ATPase activity was assessed in vitro using the colorimetric Adenosine 5′-Triphosphatase Enzymatic Assay of Sigma (St. Louis, Mo.) according to the manufacturer's instructions. This assay utilizes Adenosine 5′-Triphosphatase isolated from porcine cerebral cortex. Each reaction was performed in a final volume of […] using 0.5 units/ml enzyme in the presence of the different inhibitors. […] IC50 values were determined using the Origin® program software (OriginLab, Northampton, Mass.).

In the next assay the test system is A549 (Lung) cells. The experiment in a line: Sulforhodamine B (SRB) assay, A549. Format: cell-based. The settings on record: Homo sapiens; for CC50: A549, 48 h, read-out: LC50; for GI50 / IC (TGI): A549 Lung, SRB, 48 h. How it is done: as §1, §2, §3, §4, §5, §6, §7
For the next assay, the system named is CAKI (Renal) cells. In words: MTT cell proliferation/viability assay, CAKI. Format: cell-based. The following applies: 72 h. How it is done: as §8, §9

Turning to `CON=C1CC2C(CC[C@]3(C)C(=O)C(F)CC23)[C@@]2(C)CCC(=NOC3CCNC3)CC12` (stereo in doubt) [Compound 8, (5S,10R,13S,16R)-16a-fluoro-6-(methoxyimino)-10,13-dimethyl-3-((R)-pyrrolidin-3-yloxyimino)-tetradecahydro-2H-cyclopenta[a]phenanthren-17(14H)-one], the CC50 is < 1 µM in assay [1] (Homo sapiens, read-out: LC50 values); 0.074 µM with H460 (Lung) cells; 6.96 µM in the assay with MCF7 (Breast) cells; 0.508 µM in assay [2] (Homo sapiens, NCI/ADR-RES, read-out: LC50); 0.919 µM in the assay on PC3 (Prostate) cells; 0.085 µM in the assay with SF268 (CNS) cells. Moreover, the CC50 in the assay with HCT116 (Colon) cells (Homo sapiens, HCT-116, 48 h, read-out: LC50) worked out at 1.04 µM; in the assay on A549 (Lung) cells, 0.075 µM. The GI50 (usually the concentration at which growth is held to half of that of the control) is < 1 µM in [1] (Homo sapiens, SRB); 0.004 µM in the assay on H460 (Lung) cells; 0.024 µM in the assay with MCF7 (Breast) cells; 0.014 µM in assay [2] (Homo sapiens, NCI-ADR-RES Ovarian, SRB); 0.009 µM with PC3 (Prostate) cells; 0.004 µM in the assay with SF268 (CNS) cells. For the same compound, the GI50 is 0.035 µM in the assay on HCT116 (Colon) cells (Homo sapiens, HCT-116, HCT116 Colon, SRB, 48 h) and 0.006 µM with A549 (Lung) cells. For the same compound, in [1], the “viability and/or cell proliferation of cell lines” value is given as “reduced the viability and/or cell proliferation”. The “anti-cancer activity in SRB assays” value in [1] (multiple cell lines) was “best activity”. The TGI (commonly the concentration giving total growth inhibition) in the assay on H460 (Lung) cells was 0.027 µM; in the assay with MCF7 (Breast) cells, 0.327 µM; in assay [2] (NCI-ADR-RES Ovarian, SRB) it was 0.071 µM; in the assay with HCT116 (Colon) cells (HCT116 Colon, SRB, 48 h), 0.236 µM. Moreover, the IC (TGI) in the assay with PC3 (Prostate) cells is 0.199 µM; in the assay on SF268 (CNS) cells it was 0.038 µM; in the assay on A549 (Lung) cells it was 0.029 µM. Further, the IC50 (in general, the concentration that gives 50% inhibition) in the assay on DU145 (Prostate) cells stood at 0.223 µM; in [3], 0.311 µM.

For `C[C@]12CCC(=NOC3CCNC3)CC1C(=O)CC1C2CC[C@]2(C)C(=O)C(F)CC12` (stereo partly drawn) [Compound 4, (10R,13S,16R)-16a-fluoro-10,13-dimethyl-3-((S)-pyrrolidin-3-yloxyimino)-tetradecahydro-14H-cyclopenta[a]phenanthrene-6,17-dione], the GI50 in assay [1] (Homo sapiens, SRB) was < 1 µM; with PC3 (Prostate) cells, 0.731 µM; with SF268 (CNS) cells, 0.277 µM; in the assay with A549 (Lung) cells, 0.43 µM. Moreover, the “viability and/or cell proliferation of cell lines” value in [1] is “reduced the viability and/or cell proliferation”. Further, the IC50 in the assay with CAKI (Renal) cells was 5 µM; in the assay on DU145 (Prostate) cells, 2.7 µM; in [3], 0.194 µM. The CC50 in the assay with PC3 (Prostate) cells is 8.04 µM; with SF268 (CNS) cells it was 6.98 µM; in the assay with A549 (Lung) cells, 1.01 µM. For the same compound, the IC (TGI) was 3.24 µM in the assay with PC3 (Prostate) cells, 0.782 µM in the assay on SF268 (CNS) cells and 0.723 µM with A549 (Lung) cells.

Consider `C[C@]12CCC3C(CC(=O)[C@H]4CC(=NO[C@H]5CCNC5)CC[C@]34CO)C1CCC2=O` (stereo partly drawn) [Compound 28, (5S,10S,13S)-10-(hydroxymethyl)-13-methyl-3-((S)-pyrrolidin-3-yloxyimino)-tetradecahydro-14H-cyclopenta[a]phenanthrene-6,17-dione], for which the “viability and/or cell proliferation of cell lines” value in [1] was “reduced the viability and/or cell proliferation”. Besides, the total growth inhibition concentration (TGI) with H460 (Lung) cells and in the assay on MCF7 (Breast) cells was >100 µM in each case. The CC50 with H460 (Lung) cells is > 100 µM; in the assay with MCF7 (Breast) cells it was > 100 µM; in the assay on PC3 (Prostate) cells, 157 µM; with SF268 (CNS) cells, > 100 µM; with A549 (Lung) cells, > 100 µM. For the same compound, the GI50 with H460 (Lung) cells worked out at 57.6 µM; in the assay on MCF7 (Breast) cells it was 76.5 µM; in the assay with PC3 (Prostate) cells it was 53.5 µM; with SF268 (CNS) cells, 63.8 µM; in the assay with A549 (Lung) cells, 62.6 µM. Also, the IC (TGI) in the assay with SF268 (CNS) cells and with A549 (Lung) cells was > 100 µM in each case. In addition, the IC50 with DU145 (Prostate) cells is 87 µM; in assay [3] it was 12.9 µM.

As for `CC(=O)OC[C@]12CCC(=NO[C@@H]3CCNC3)C[C@@H]1CCC1C2CC[C@]2(C)C(=O)CCC12` (stereo partly drawn) [Compound 48, ((5S,10R,13S)-13-methyl-17-oxo-3-((R)-pyrrolidin-3-yloxyimino)-hexadecahydro-1H-cyclopenta[a]phenanthren-10-yl)methyl acetate], the “GI50 action in most cell lines” value in [1] (SRB, most cell lines) is “single-digit micromolar”. For the same compound, the “viability and/or cell proliferation of cell lines” value in [1] is “reduced the viability and/or cell proliferation”. For the same compound, the IC50 in the assay on CAKI (Renal) cells came out at 41.3 µM; in the assay with DU145 (Prostate) cells, 11.6 µM; in [3] it was 2.88 µM. Moreover, the CC50 is > 100 µM with PC3 (Prostate) cells, 101 µM with SF268 (CNS) cells and 102 µM in the assay with A549 (Lung) cells. Moreover, the concentration for 50% growth inhibition (GI50) in the assay with PC3 (Prostate) cells was determined as 8.77 µM; in the assay with SF268 (CNS) cells, 11.5 µM; in the assay on A549 (Lung) cells, 6.31 µM. The results for the IC (TGI) in the assay on PC3 (Prostate) cells, with SF268 (CNS) cells and in the assay on A549 (Lung) cells were > 100 µM, 56400 µM and 38300 µM, respectively.
